Measurements: patent publication US20250011326A1, “FUSED HETEROCYCLIC DERIVATIVES AND THEIR USE IN THE TREATMENT OF HBV INFECTION” (Janssen Sciences Ireland Unlimited Company, priority 2021, published 2025)

Columns and labels:
[1] = tested on: HBV; assay: Anti-HBV activity: intracellular HBV DNA by real-time PCR in HepG2.117 cell line; format: cell-based, Hepatitis B virus; settings: HepG2.117 cells, HBV replication induced (absence of doxycycline), 3 days of treatment, mean value
Description: The anti HBV activity was measured using the HepG2.117 cell line, a stable, inducibly HBV producing cell line, which replicates HBV in the absence of doxycycline (Tet-off system). The HepG2 cell line is available from ATCCR under number HB-8065 Transfection of the HepG2 cell line can be as described in Sun and Nassal 2006 Journal of Hepatology 45 (2006) 636-645 “Stable HepG2- and Huh7-based human hepatoma cell lines for efficient regulated expression of infectious hepatitis B virus”.
For the antiviral assay, HBV replication was induced, followed by a treatment with serially diluted compound in 96-well plates. After 3 days of treatment, the antiviral activity was determined by quantification of intracellular HBV DINA using real-time PCR and an HBV specific primer set and probe.

[2] = tested on: HepG2 or HepG2 117 cells; assay: Cytotoxicity, cell viability by ATPlite Luminescence Assay; format: cell-based, human; settings: 3-days incubation (unless marked *), mean value
Description: (§1) Cytotoxicity of the compounds was tested using HepG2 or HepG2 117 cells, incubated for 3 or 4 days in the presence of compounds. The viability of the cells was assessed using the PERKIN ELMER ATPlite Luminescence Assay System.”

[3] = as above; format: cell-based, human; settings: human, HepG2 or HepG2 117 cells, 3-days incubation (unless marked *), mean value
Description: as §1

[4] = Hepatitis B virus, HepG2.117, 72 h

Q: Which EC50 [1] does the source give for `CC(=O)NC[C@@H]1Cn2nc3c(c2C(=O)N1[C@@H](C)c1ccc(OC(F)F)cc1)CN(C(=O)c1ccc(Cl)c(C#N)c1)[C@H](C)C3` (single isomer, unassigned) [Compound 1D, N-(((3R,8S*)-2-(4-chloro-cyanobenzoyl)-9-((S*)-1-(4-(difluoromethoxy)phenyl)ethyl)-3-methyl-10-oxo-1,2,3,4,7,8,9,10-octahydropyrido[4′,3′:3,4]pyrazolo[1,5-a]pyrazin-8-yl)methyl)acetamide] here?
A: Its EC50 is 0.491 µM.

Q: And the CC50 [2]?
A: Its CC50 is greater than 50 µM.

Q: With `CNC(=O)[C@@H]1Cn2nc3c(c2C(=O)N1[C@@H](C)c1ccc(OC(F)F)cc1)CN(C(=O)c1ccc(Cl)c(C#N)c1)[C@H](C)C3` (single isomer, unassigned) [Compound 2B, (3R,8S*)-2-(4-chloro-3-cyanobenzoyl)-9-((S*)-1-(4-(difluoromethoxy)phenyl)ethyl)-N,3-dimethyl-10-oxo-1,2,3,4,7,8,9,10-octahydropyrido[4′,3′:3,1]pyrazolo[1,5-a]pyrazine-8-carboxamide] as the compound, how does the EC50 [1, 4] read?
A: Its EC50 is 0.183 µM.

Q: And the CC50 at 3 days [3]?
A: Its CC50 at 3 days is greater than 50 µM.

Q: For `CC(=O)NC[C@@H]1Cn2nc3c(c2C(=O)N1[C@@H](C)c1ccc(OC(F)F)cc1)CN(C(=O)c1ccc(Cl)c(C#N)c1)[C@H](C)C3` (single isomer, unassigned) [Compound 1B, N-(((3R,8R*)-2-(4-chloro-3-cyanobenzoyl)-9-((S*)-1-(4-(difluoromethoxy)phenyl)ethyl)-3-methyl-10-oxo-1,2,3,4,7,8,9,10-octahydropyrido[4′,3′:3,4]pyrazolo[1,5-a]pyrazin-8-yl)methyl)acetamide], which EC50 [1] is on record?
A: The EC50 was 1.48 µM.

Q: What about the CC50 at 3 days [3] of the same compound?
A: The CC50 at 3 days was greater than 50 µM.

Q: Which results are given for `CNC(=O)CC[C@H]1Cn2nc3c(c2C(=O)N1Cc1ccc(OC(F)F)cc1)CN(C(=O)c1ccc(Cl)c(C#N)c1)[C@H](C)C3` [Compound 5, 3-((3R,8S)-2-(4-chloro-3-cyanobenzoyl)-9-(4-(difluoromethoxy)benzyl)-3-methyl-10-oxo-1,2,3,4,7,8,9,10-octahydropyrido[4′3′:3,4]pyrazolo[1,5-a]pyrazin-8-yl)-N-methylpropanamide]?
A: EC50 [1, 4]: 0.414 µM; CC50 at 3 days [3]: > 50 µM

Q: For `CC(c1ccc(OC(F)F)cc1)N1C(=O)c2c3c(nn2CC1CO)C[C@@H](C)N(C(=O)c1ccc(Cl)c(C#N)c1)C3` (stereo partly drawn) [Compound 4, 2-Chloro-5-((3R)-9-(1-(4-(difluoromethoxy)phenyl)ethyl)-8-(hydroxymethyl)-3-methyl-10-oxo-1,2,3,4,7,8,9,10-octahydropyrido[4′,3′:3,4]pyrazolo[1,5-a]pyrazine-2-carboaryl)benzonitrile], which EC50 [1, 4] is on record?
A: The EC50 was 0.227 µM.

Q: And the CC50 at 3 days [3]?
A: The CC50 at 3 days was 25 µM.

Q: Which results are given for `CC(c1ccc(OC(F)F)cc1)n1ncn2nc3c(c2c1=O)CN(C(=O)c1ccc(Cl)c(C(F)(F)F)c1)[C@H](C)C3` (single isomer, unassigned) [Compound 7A, (R)-9-(4-Chloro-3-(trifluoromethyl)benzoyl)-2-((R*)-1-(4-(difluoromethoxy)phenyl)ethyl)-8-methyl-7,8,9,10-tetrahydropyrido[4′,3′:3,4]pyrazolo[1,5-d][1,2,4]triazin-1(2H)-one]?
A: EC50 [1, 4]: 0.194 µM; CC50 at 3 days [3]: 46.3 µM

Q: For `CC(=O)NC[C@@H]1CN([C@@H](C)c2ccc(OC(F)F)cc2)C(=O)c2c3c(nn21)C[C@@H](C)N(C(=O)c1ccc(Cl)c(C#N)c1)C3` (single isomer, unassigned) [Compound 13B, N-(((3R,7R*)-2-(4-chloro-3-cyanobenzoyl)-9(S*)-1-(4-(difluoromethoxy)phenyl)ethyl)-3-methyl-10-oxo-1,2,3,4,7,8,9,10-octahydropyrido[4′,3′:3,4]pyrazolo[1,5-a]pyrazin-7-yl)methyl)acetamide], which EC50 [1, 4] is on record?
A: Its EC50 is 0.167 µM.

Q: What about the CC50 at 3 days [3] of the same compound?
A: Its CC50 at 3 days is greater than 50 µM.

Q: Which results are given for `CC1Cn2nc3c(c2C(=O)N1Cc1ccc(OC(F)F)cc1)CN(C(=O)c1ccc(Cl)c(Cl)c1)[C@H](C)C3` (single isomer, unassigned) [Compound 6A, (3R,8R*)-2-(3,4-dichlorobenzoyl)-9-(4-(difluoromethoxy)benzyl)-3,8-dimethyl-1,2,3,4,8,9-hexahydropyrido[4′,3′:3,4]pyrazolo[1,5-a]pyrazin-10(7H)-one]?
A: EC50 [1, 4]: 0.032 µM; CC50 at 3 days [3]: 4.5 µM

Q: With `CC(c1ccc(OC(F)F)cc1)n1ncn2nc3c(c2c1=O)CN(C(=O)c1ccc(Cl)c(C#N)c1)[C@H](C)C3` (single isomer, unassigned) [Compound 9B, 2-chloro-5-((R)-2-((S*)-1-(4-(difluoromethoxy)phenyl)ethyl)-8-methyl-1-oxo-1,2,7,8,9,10-hexahydropyrido[4′,3′:3,4]pyrazolo[1,5-d][1,2,4]triazine-9-carbonyl)benzonitrile] as the compound, how does the EC50 [1, 4] read?
A: The EC50 was 0.13 µM.

Q: And the CC50 at 3 days [3]?
A: Its CC50 at 3 days is greater than 50 µM.

Q: With `CC(c1ccc(OC(F)F)cc1)n1ccn2nc3c(c2c1=O)CN(C(=O)c1ccc(Cl)c(Cl)c1)[C@H](C)C3` (single isomer, unassigned) [Compound 10A, (R)-2-(3,4-dichlorobenzoyl)-9-((R*)-1-(4-(difluoromethoxy)phenyl)ethyl)-3-methyl-1,2,3,4-tetrahydropyrido[4′,3′:3,4]pyrazolo[1,5-a]pyrazin-10(9H)-one] as the compound, how does the EC50 [1] read?
A: Its EC50 is 0.072 µM.

Q: And the CC50 at 3 days [3]?
A: The CC50 at 3 days was 32.8 µM.

Q: With `CC(c1ccc(OC(F)F)cc1)n1ccn2nc3c(c2c1=O)CN(C(=O)c1ccc(Cl)c(Cl)c1)[C@H](C)C3` (single isomer, unassigned) [Compound 10B, (R)-2-(3,4-dichlorobenzoyl)-9-((S*)-1-(4-(difluoromethoxy)phenyl)ethyl)-3-methyl-1,2,3,4-tetrahydropyrido[4′,3′:3,4]pyrazolo[1,5-a]pyrazin-10(9H)-one] as the compound, how does the EC50 [1] read?
A: Its EC50 is 0.294 µM.

Q: And the CC50 [2]?
A: Its CC50 is greater than 50 µM.

Q: For `CC(c1ccc(OC(F)F)cc1)n1ncn2nc3c(c2c1=O)CN(C(=O)c1ccc(Cl)c(Cl)c1)[C@H](C)C3` (single isomer, unassigned) [Compound 8A, (R)-9-(3,4-Dichlorobenzoyl)-2-((R*)-1-(4-(difluoromethoxy)phenyl)ethyl)-8-methyl-7,8,9,10-tetrahydropyrido[4′,3′:3,4]pyrazolo[1,5-d][1,2,4]triazin-1(2H)-one], which EC50 [1, 4] is on record?
A: The EC50 was 0.067 µM.

Q: What about the CC50 at 3 days [3] of the same compound?
A: The CC50 at 3 days was greater than 50 µM.

Q: Which results are given for `CC(c1ccc(OC(F)F)cc1)n1ncn2nc3c(c2c1=O)CN(C(=O)c1ccc(Cl)c(C(F)(F)F)c1)[C@H](C)C3` (stereo in doubt) [Compound 7B, (R)-9-(4-chloro-3-(trifluoromethyl)benzoyl)-2-((S*)-1-(4-(difluoromethoxy)phenyl)ethyl)methyl-7,8,9,10-tetrahydropyrido[4′,3′:3,4]pyrazolo[1,5-d][1,2,4]triazin-1(2H)-one]?
A: EC50 [1]: 0.262 µM; CC50 [2]: > 50 µM

Q: For `CNC(=O)[C@H]1Cn2nc3c(c2C(=O)N1Cc1ccc(OC(F)F)cc1)CN(C(=O)c1ccc(Cl)c(C#N)c1)[C@H](C)C3` [Compound 3A], which EC50 [1, 4] is on record?
A: The EC50 was 0.427 µM.

Q: And the CC50 at 3 days [3]?
A: Its CC50 at 3 days is greater than 50 µM.

Q: What does the source list for `CC(=O)NC[C@H]1CN([C@@H](C)c2ccc(OC(F)F)cc2)C(=O)c2c3c(nn21)C[C@@H](C)N(C(=O)c1ccc(Cl)c(C#N)c1)C3` (single isomer, unassigned) [Compound 13D, N-(((3R,7S*)-2-(4-chloro-3-cyanobenzoyl)-9-((S*)-1-(4-(difluoromethoxy)phenyl)ethyl)-3-methyl-10-oxo-1,2,3,4,7,8,9,10-octahydropyrido[4′,3′:3,4]pyrazolo[1,5-a]pyrazin-7-yl)methyl)acetamide]?
A: EC50 [1, 4]: 0.344 µM; CC50 at 3 days [3]: > 50 µM

Q: With `CC(c1ccc(OC(F)F)cc1)N1CC(CO)n2nc3c(c2C1=O)CN(C(=O)c1ccc(Cl)c(C#N)c1)[C@H](C)C3` (stereo partly drawn) [Compound 12, 2-Chloro-5-((3R)-9-(1-(4-(difluoromethoxy)phenyl)ethyl)-7-(hydroxymethyl)-3-methyl-10-oxo-1,2,3,4,7,8,9,10-octahydropyrido[4′,3′:3,4]pyrazolo[1,5-a]pyrazine-2-carbonyl)benzonitrile] as the compound, how does the EC50 [1, 4] read?
A: Its EC50 is 0.068 µM.

Q: And the CC50 at 3 days [3]?
A: Its CC50 at 3 days is 24.9 µM.

Q: With `CNC(=O)[C@H]1CN([C@@H](C)c2ccc(OC(F)F)cc2)C(=O)c2c3c(nn21)C[C@@H](C)N(C(=O)c1ccc(Cl)c(C#N)c1)C3` (single isomer, unassigned) [Compound 11B, (3R,7R*)-2-(4-chloro-3-cyanobenzoyl-9-((S*)-1-(4-(difluoromethoxy)phenyl)ethyl)-N,3-dimethyl-10-oxo-1,2,3,4,7,8,9,10-octahydropyrido[4′,3′:3,4]pyrazolo[1,5-a]pyrazine-7-carboxamide] as the compound, how does the EC50 [1, 4] read?
A: The EC50 was 0.058 µM.

Q: What about the CC50 at 3 days [3] of the same compound?
A: Its CC50 at 3 days is greater than 50 µM.

Q: With `CC(c1ccc(OC(F)F)cc1)n1ncn2nc3c(c2c1=O)CN(C(=O)c1ccc(Cl)c(C#N)c1)[C@H](C)C3` (stereo in doubt) [Compound 9A, 2-Chloro-S—((R)-2-((R*)-1-(4-(difluoromethoxy)phenyl)ethyl)-8-methyl-1-oxo-1,2,7,8,9,10-hexahydropyrido[4′,3′:3,4]pyrazolo[1,5-d][1,2,4]triazine-9-carbonyl)benzonitrile] as the compound, how does the EC50 [1] read?
A: The EC50 was 0.553 µM.

Q: And the CC50 [2]?
A: Its CC50 is greater than 50 µM.
